# Measured values reported in publication PMC12266748, “A Xanthine Derivative With Novel Heat Shock Protein 90‐Alpha Inhibitory and Senolytic Properties” (Aging Cell, 2025).
# Read-outs that look alike come from different tables or passages of the source.
# System: IMR90 cells
# Assay: Dose-response curves on proliferating and replicative senescent IMR90 (Trypan blue cell count)
# Format: cell-based
# Settings: for EC50: Homo sapiens, IMR-90
# Description: IMR90 and WI38 lung fibroblasts were purchased from ECACC‐Merck. Human bone marrow (BM)‐derived mesenchymal stromal cells (MSCs) were purchased from Lonza. Human umbilical vein endothelial cells (HUVECs) are primary cells obtained from a pool of donors purchased from Clonetics (Lonza). Murine ear fibroblasts (MearFs) were obtained from C57BL/6J mice maintained in the INRCA “Specific Pathogen Free” (SPF) animal facility. MCF7 breast cancer cells were purchased from ATCC. For dose–response curves, IMR90 and WI38 were induced to senescence through replicative passages; MSCs, HUVECs, and MearFs senescence was induced with Doxorubicin; MCF7 senescence was induced with 4‐Hydroxytamoxifen (Lee et al. [2014]). The EC50 was calculated using GraphPad Prism 10 software. All treatment specifications are reported in the extended section.
# Cell culture and treatment. IMR90 cells (Homo sapiens, fetal lung, fibroblast) and WI38 cells (Homo sapiens, fetal lung, fibroblast) were purchased from ECACC-Merck (Merck, Darmstadt, Germany) and cultured in MEM medium (Euroclone, Milano, Italy) supplemented with 1% L-Glutamine (Euroclone, Milano, Italy), 1% Penicillin-Streptomycin (Euroclone, Milano, Italy), and 10% Fetal Bovine Serum (FBS, Euroclone, Milano, Italy), at 37°C, 5% CO2. IMR90 cells with a population doubling (PD) from PD15 to PD23 were used; cells were considered incrementally senescent from passage PD19 to passage PD23. WI38 cells were used from PD26 to PD53. Cells were considered incrementally senescent from passage PD49 to passage PD53. For the compounds in vitro screening, IMR90 cells with passages from PD15 to PD23 were tested at increasing concentrations of 0.5 μM, 1 μM, 10 μM, and 25 μM over 24 and 48 h to evaluate the compounds' efficacy and cytotoxicity compared to the Vehicle (DMSO ≤ 0.1%). Cells were counted manually, in triplicate, using Trypan blue reagent (Euroclone) and disposable Bürker chambers. […] K5 dose-response proliferation curves were performed with compound K5 (Molport, SIA, Riga, Latvia) in concentrations 0.1, 0.5, 1, 5, 10, 50, 100, and 200 μM for 48 h. Cells were counted using a Trypan blue reagent and EVAplus cell counter. The EC50s were calculated by analyzing the data using GraphPad Prism 10 software.
# MCF7 cell line (ATCC; HTB-22, Homo sapiens, breast cancer) was purchased from ATCC; cells were grown in MEM medium (Corning, New York, USA, #15-010-CVR) supplemented with 10% FBS (Gibco, Invitrogen, Carlsbad, CA, USA, #10270106), 1% glutamine (Corning #25005-CI), 1% penicillin and streptomycin (Corning #30002-CI). Cells were incubated at 37 °C with 5% CO2. Senescent status induction: MCF7 were plated 24 h before the treatment with 4-Hydroxytamoxifen (TAM) 10 μM to induce the senescence described by (Lee et al. 2014). Control cultures were treated with equal volumes of 75% ethanol as the vehicle. The treatment with TAM lasts 96 h, after which the cells have been washed and treated with the senolytic drugs K5 10 µM for another 96 h. The treatment with the senolytic compounds has been renewed at 48 h. Cell mortality and vitality curves after treatment with K5 (10 μM, orange) or Vehicle (DMSO, grey) were monitored using the Incucyte live-cell Analysis system (Sartorius, Goettingen, Germany). The estimated Senolytic index (SI) was calculated as the ratio between the EC50 in proliferating cells and the EC50 in senescent cells, extrapolated using GraphPad Prism 10 software.
smiles,measurement,setting,value
"Cc1ccccc1-n1c(=O)n(Cc2ccccc2)c(=O)c2[nH]cnc21 [Compound K5, 1-benzyl-3-(2-methylphenyl)-7H-purine-2,6-dione]",EC50,"IMR90, Replicative/passages, read-out: EC50 senescent cells",0.38 µM
same,EC50,"IMR90, read-out: EC50 proliferating cells",> 500 µM
same,"Senolytic evidence (no, partly/yes)","IMR90, Replicative/passages",Yes
same,Senolytic index (estimated),"IMR90, SI = EC50 in proliferating cells/EC50 senescent cells",> 1320
same,toxicity in proliferating cells,"proliferating IMR90 (PD15), 100 nM to 200 μM, 48 h",no evident toxicity
